How the values were obtained:
human IBAT = target: T1, human IBAT (Homo sapiens, UniProt Q12908); assay: IBAT counter screen, [3H]taurocholic acid uptake in IBAT-transfected HEK293 cells; format: cell-based; settings: read-out: pEC50 human IBAT (converted)
T1 construct: expressed in transfected cells; host or cells: HEK293
T1 sequence (Q12908 1-348): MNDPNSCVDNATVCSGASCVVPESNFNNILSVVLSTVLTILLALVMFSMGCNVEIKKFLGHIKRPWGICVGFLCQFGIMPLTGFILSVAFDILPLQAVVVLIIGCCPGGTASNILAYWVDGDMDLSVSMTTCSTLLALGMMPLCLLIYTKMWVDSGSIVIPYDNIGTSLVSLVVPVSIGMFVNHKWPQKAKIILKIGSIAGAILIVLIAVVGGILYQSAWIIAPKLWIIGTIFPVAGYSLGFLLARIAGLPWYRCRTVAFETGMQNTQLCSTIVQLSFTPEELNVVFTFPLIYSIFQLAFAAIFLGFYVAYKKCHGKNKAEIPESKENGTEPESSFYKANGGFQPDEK
Protocol: Following a 40-min incubation, the solution was removed, and the cells were washed twice with uptake buffer. Cells were lysed by addition of 20 μL 0.1% Tween 80 followed by 100 μL scintillation fluid and counted using a TopCount (Perkin Elmer).

[1] = target: T2, endogenously expressed TGR5 in NCI H716 (Homo sapiens, UniProt Q8TDU6); assay: Cell-based TGR5 assay, NCI-H716 cells endogenously expressing human TGR5, cAMP by HTRF; settings: 30 min at 37 C, 22 nM to 50 μM, read-out: pEC50 endogenously expressed TGR5 in NCI H716 (converted)
T2 construct: human caecum carcinoma cell line NCI-H716 which endogenously expresses human TGR5; endogenous in cells; host or cells: NCI-H716
T2 sequence (Q8TDU6 1-330): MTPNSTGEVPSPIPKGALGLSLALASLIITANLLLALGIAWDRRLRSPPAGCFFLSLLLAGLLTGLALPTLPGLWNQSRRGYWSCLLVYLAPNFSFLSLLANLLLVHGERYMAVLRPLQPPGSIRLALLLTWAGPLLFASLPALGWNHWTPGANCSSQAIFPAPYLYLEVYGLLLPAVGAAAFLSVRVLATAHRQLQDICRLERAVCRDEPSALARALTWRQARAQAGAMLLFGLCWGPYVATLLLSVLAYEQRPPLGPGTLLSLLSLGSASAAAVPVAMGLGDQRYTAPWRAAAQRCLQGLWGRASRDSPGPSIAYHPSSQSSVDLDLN
In short: (§1)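 cAMP HTRF read-out, converted to concentration via standard curve, after a 30 min, 37 °C compound exposure in HBSS with 10 mM HEPES pH 7.4 and 0.5 mM IBMX, compounds serially diluted 3-fold from 10 mM DMSO stock then 100-fold. Cells: stable human TGR5 HEK293, or NCI-H716 expressing TGR5 endogenously.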

human TGR5 = target: T3, human TGR5 (Homo sapiens, UniProt Q8TDU6); assay: Cell-based TGR5 assay, HEK293 cells stably expressing human TGR5, cAMP by HTRF; settings: HEK293 cells stably expressing human TGR5, 30 min at 37 C, 0.05 nM to 10 μM, read-out: pEC50 Human TGR5 (converted)
T3 construct: expressed in transfected cells
T3 sequence (Q8TDU6 1-330): T2 sequence (Q8TDU6 1-330)
In short: as §1

Structure (SMILES)	EC50 (human IBAT) [µM]	EC50 [1] [µM]	EC50 (human TGR5) [µM]
O=C(c1cccn1Cc1cc(Cl)ccc1Cl)N1CCN(C2CC2)c2ccccc21 [Example 61, (4-cyclopropyl-3,4-dihydroquinoxalin-1(2H)-yl)(1-(2,5-dichlorobenzyl)-1H-pyrrol-2-yl)methanone]	> 25.1	0.126 to 1	0.126 to 1
O=C(N1CCN(C2CC2)c2ccccc21)N1CCCC1Cc1ccccc1Cl (stereo not shown) [Example 28]	> 25.1	1.26 to 50.1	1.26 to 50.1
O=C([C@@H]1CCCCN1C(=O)c1cc(Cl)ccc1Cl)N1CCN(C2CC2)c2ccccc21 [Example 13, (S)-(2-(4-cyclopropyl-1,2,3,4-tetrahydroquinoxaline-1-carbonyl)piperidin-1-yl)(2,5-dichlorophenyl)methanone]	> 25.1	1.26 to 50.1	1.26 to 50.1
CC(C)(OCc1cc(Cl)ccc1Cl)C(=O)N1CCN(C2CC2)c2ccccc21 [Example 1, 1-(4-cyclopropyl-1,2,3,4-tetrahydroquinoxalin-1-yl)-2-[(2,5-dichlorophenyl)methoxy]-2-methylpropan-1-one]	> 25.1	0.126 to 1	0.126 to 1
O=C(c1cccc(=O)n1Cc1cc(Cl)ccc1Cl)N1CCN(C2CC2)c2ccccc21 [Example 64, 6-[(4-cyclopropyl-1,2,3,4-tetrahydroquinoxalin-1-yl)carbonyl]-1-[(2,5-dichlorophenyl)methyl]-1,2-dihydropyridin-2-one]	> 25.1	1.26 to 50.1	1.26 to 50.1
O=C([C@@H]1C2CC2CN1Cc1cc(Cl)ccc1Cl)N1CCN(C2CC2)c2ccccc21 (stereo partly drawn) [Example 24, (4-cyclopropyl-3,4-dihydroquinoxaline-1(2H)-yl)((2S)-3-(2,5-dichlorobenzyl)-3-azabicyclo[3.1.0]hexan-2-yl)methanone]	> 25.1	1.26 to 50.1	1.26 to 50.1
O=C(c1ncoc1Cc1cc(Cl)ccc1Cl)N1CCN(C2CC2)c2ccccc21 [Example 66, 1-cyclopropyl-4-([5-[(2,5-dichlorophenyl)methyl]-1,3-oxazol-4-yl]carbonyl)-1,2,3,4-tetrahydroquinoxaline]	> 25.1	1.26 to 50.1	1.26 to 50.1
O=C([C@@H]1CCCN1S(=O)(=O)c1cc(Cl)ccc1Cl)N1CCN(C2CC2)c2ccccc21 [Example 18]	> 25.1	1.26 to 50.1	1.26 to 50.1
O=C(c1nccn1Cc1cc(Cl)ccc1Cl)N1CCN(C2CC2)c2ccccc21 [Example 62, (4-cyclopropyl-3,4-dihydroquinoxalin-1(2H)-yl)(1-(2,5-dichlorobenzyl)-1H-imidazol-2-yl)methanone]	> 25.1	1.26 to 50.1	1.26 to 50.1
CN(C(=O)C1(OCc2cc(Cl)ccc2Cl)CC1)c1ccccc1OCC1CC1 [Example 40, N-(2-(cyclopropylmethoxy)phenyl)-1-(2,5-dichlorobenzyloxy)-N-methylcyclopropanecarboxamide]	> 25.1	0.126 to 1	< 0.1
O=C(C1CCN(Cc2cc(Cl)ccc2Cl)C1)N1CCN(C2CC2)c2ccccc21 (stereo not shown) [Example 57, (4-cyclopropyl-3,4-dihydroquinoxalin-1(2H)-yl)(1-(2,5-dichlorobenzyl)pyrrolidin-3-yl) methanone]	> 25.1	1.26 to 50.1	1.26 to 50.1
O=C(N1CCN(C2CC2)c2ccccc21)C1(NCc2cc(Cl)ccc2Cl)CCC1 [Example 56]	> 25.1	< 0.1	< 0.1
COc1cccnc1N(C)C(=O)C1(OCc2cc(Cl)ccc2Cl)CC1 [Example 37, 1-(2,5-dichlorobenzyloxy)-N-(3-methoxypyridin-2-yl)-N-methylcyclopropanecarboxamide]	> 25.1	1.26 to 50.1	0.126 to 1
O=C([C@@H]1CCCCN1Cc1cc(Cl)ccc1Cl)N1CCCc2ccccc21 [Example 11, (S)-(1-(2,5-dichlorobenzyl)piperidin-2-yl)(3,4-dihydroquinolin-1(2H)-yl)methanone]	> 25.1	1.26 to 50.1	1.26 to 50.1
O=C(c1cccc(OCc2cc(Cl)ccc2Cl)n1)N1CCN(C2CC2)c2ccccc21 [Example 63, 1-cyclopropyl-4-([6-[(2,5-dichlorophenyl)methoxy]pyridin-2-yl]carbonyl)-1,2,3,4-tetrahydroquinoxaline]	> 25.1	1.26 to 50.1	1.26 to 50.1
CC(C)(COc1cc(Cl)ccc1Cl)C(=O)N1CCN(C2CC2)c2ccccc21 [Example 31, 1-(4-cyclopropyl-1,2,3,4-tetrahydroquinoxalin-1-yl)-3-(2,5-dichlorophenoxy)-2,2-dimethylpropan-1-one]	> 25.1	0.126 to 1	< 0.1
CC1(C)C[C@@H](C(=O)N2CCN(C3CC3)c3ccccc32)N(Cc2cc(Cl)ccc2Cl)C1 [Example 19, (S)-(4-cyclopropyl-3,4-dihydroquinoxaline-1 (2H)-yl)(1-(2,5-dichlorobenzyl)-4,4-dimethylpyrrolidin-2-yl)methanone]	> 25.1	1.26 to 50.1	1.26 to 50.1
Cc1nn(C)c(Oc2cc(Cl)ccc2Cl)c1C(=O)N1CCN(C2CC2)c2ccccc21 [Example 65, 1-cyclopropyl-4-[[5-(2,5-dichlorophenoxy)-1,3-dimethyl-1H-pyrazol-4-yl]carbonyl]-1,2,3,4-tetrahydroquinoxaline]	> 25.1	1.26 to 50.1	1.26 to 50.1
O=C(COc1cc(Cl)ccc1Cl)N1CCN(C2CC2)c2ccccc21 [Example 4, 1-(4-cyclopropyl-3,4-dihydroquinoxalin-1(2H)-yl)-2-(2,5-dichlorophenoxy)ethanone]	> 25.1	> 50.1	1.26 to 50.1
O=C([C@@H]1CCC(=O)N1Cc1cc(Cl)ccc1Cl)N1CCN(C2CC2)c2ccccc21 [Example 25, (S)-5-(4-cyclopropyl-1,2,3,4-tetrahydroquinoxaline-1-carbonyl)-1-(2,5-dichlorobenzyl)pyrrolidin-2-one]	> 25.1	1.26 to 50.1	1.26 to 50.1
O=C(C1=C(Oc2cc(Cl)ccc2Cl)CCCC1)N1CCN(C2CC2)c2ccccc21 [Example 29, (4-cyclopropyl-3,4-dihydroquinoxalin-1(2H)-yl)(2-(2,5-dichlorophenoxy)cyclohex-1-enyl)methanone]	> 25.1	0.126 to 1	< 0.1
COc1ccccc1N(C)C(=O)C1(OCc2cc(Cl)ccc2Cl)CC1 [Example 36, 1-(2,5-dichlorobenzyloxy)-N-(2-methoxyphenyl)-N-methylcyclopropanecarboxamide]	> 25.1	0.126 to 1	< 0.1
O=C([C@@H]1C[C@H](F)CN1Cc1cc(Cl)ccc1Cl)N1CCN(C2CC2)c2ccccc21 [Example 3, (4-cyclopropyl-3,4-dihydroquinoxalin-1(2H)-yl)((2S,4S)-1-(2,5-dichlorobenzyl)-4-fluoropyrrolidin-2-yl)methanone]	> 25.1		
O=C(N1CCN(C2CC2)c2ccccc21)C1(OCc2cc(Cl)ccc2Cl)CCCC1 [Example 8, (4-cyclopropyl-3,4-dihydroquinoxalin-1(2H)-yl)(1-(2,5 dichlorobenzyloxy)cyclopentyl)methanone]	> 25.1	0.126 to 1	< 0.1
CN(Cc1cc(Cl)ccc1Cl)C1(C(=O)N2CCN(C3CC3)c3ccccc32)CC1 [Example 27, (4-cyclopropyl-3,4-dihydroquinoxalin-1(2H)-yl)(1-((2,5-dichlorobenzyl)(methyl)amino)cyclopropyl)methanone]	> 25.1	1.26 to 50.1	0.126 to 1

— patent publication US20150148311A1, “NON-SYSTEMIC TGR5 AGONISTS” (Ardelyx, Inc., priority 2011, published 2015)
